{
  "source": "patent US20240336568A1",
  "about": "“SELECTIVE PHD1 INHIBITOR COMPOUNDS, COMPOSITIONS, AND METHODS OF USE” (Akebia Therapeutics, Inc., priority 2021, published 2024)",
  "data": [
    {"test_system": "full-length human prolyl-4-hydroxylase domain (PHD) enzymes, PHD1 and PHD2", "assay": "TR-FRET assay, selectivity of compounds for PHD1 over PHD2 (ratio of Kis calculated from IC50s)", "format": "biochemical", "settings": "ratio of Kis (PHD2 Ki/PHD1 Ki), Kis calculated from TR-FRET IC50s by Cheng Prussoff equation; 1 uM 2-OG", "excerpt": "Time-resolved fluorescence resonance energy transfer (TR-FRET) assay was utilized to determine the enzymatic half maximal inhibitory concentration (IC50) value of PHD inhibitors against the full-length human prolyl-4-hydroxylase domain (PHD) enzymes, PHD1 and PHD2. The TR-FRET assay was developed based on the specific binding of hydroxylated HIF-la peptide with the complex formed by VHL, EloB and EloC (VBC), to generate a fluorescent signal. Terbium (Tb)-Donor (monoclonal antibody anti-6His-Tb-cryptate Gold) and D2-acceptor (streptavidin [SA]-D2) of TR-FRET are linked to the VBC complex and to HIF-1α peptide, respectively. The VBC complex binds specifically to the HIF-1α peptide when it is hydroxylated, allowing energy transfer from TR-FRET donor to acceptor (FIG. 1).\nTR-FRET Reagents. Monoclonal antibody anti-6His-Tb-cryptate Gold (catalog #61HI2TLA) and streptavidin (SA)-D2 (catalog #610SADLA) were purchased from CisBio International (Bedford, MA, USA).\nN-terminus biotinylated HIF-1α C35 synthetic peptide representing amino acids 547 to 581 and including the proline 564 PHD2 hydroxylation site was purchased from California Peptide Research (Salt Lake City, UT, USA).\nVBC Complex. His-tagged recombinant VHL protein, EloB, EloC complex (His-VBC) was supplied by Axxam (Milan, Italy). Recombinant human VHL (National Center for Biotechnology Information [NCBI] accession number NP_00542.1) contained a His tag at the C-terminus of amino acids 55 to 213 and is referred to as VHL-His. VHL-His was co-expressed in E. coli with full-length human EloB (NCBI accession number Q15370.1) and full-length human EloC (NCBI accession number Q15369.1) and purified by affinity chromatography on a nickel-nitrilotriacetic acid (Ni-NTA) column as the His-VBC complex. Purity (˜80%) was assessed by sodium dodecyl sulfate polyacrylamide gel electrophoresis (SDS-PAGE).\nPHD1. Recombinant human PHD1 protein (catalog #81064, Lot #24717001) was purchased from Active Motif (Carlsbad, CA, USA). PHD1 was expressed in a baculovirus expression system as the full-length protein (NCBI accession number NP_542770.2) with an N-terminal FLAG tag (molecular weight 44.9 kDa). Purity (>90%) was assessed by SDS-PAGE.\nPHD2. The full-length human PHD2 enzyme was produced with a baculovirus infected insect cell (BIIC) expression system by Beryllium (Bedford, MA, USA). The PHD2 construct contained amino acids 1 to 426 of PHD2 (UniProt Knowledgebase[UniProtKB]/Swiss-Prot accession number Q9GZT9.1), and a His tag and a Tobacco Etch Virus (TEV) protease cleavage site at the N-terminus. The construct was expressed in Sf9 insect cells, purified by Ni-NTA column and digested with TEV protease to remove the His tag.\nCompounds were preincubated with PHD enzyme in a 10 μL reaction volume in white 384-well Optiplate microplates (catalog #6007290, Perkin Elmer, Waltham, MA, USA). For this, 5 μL compound was serially diluted with dilution buffer (50 mM HEPES [4-(2-hydroxyethyl)-1-piperazineethanesulfonic acid] pH 7.5, 50 mM sodium chloride [NaCl], 0.01% Tween-20, 0.01% purified bovine serum albumin [BSA]) and mixed with 5 μL PHD enzyme mix prepared as a 4× concentrate in the dilution buffer containing PHD enzyme (60 nM PHD1, 20 nM PHD2, 140 nM PHD3), 40 μM ferrous ammonium sulfate (FAS), 4 mM sodium (Na) ascorbate. The plates were incubated for 30 minutes at room temperature without rotation.\nFive microliters of the VBC/anti-6His-Tb-cryptate Gold mix prepared as a 4× concentrate in dilution buffer containing 20 nM His-VBC, 1.32 nM monoclonal antibody anti-6His-Tb-cryptate Gold was then added. This step was followed immediately by the addition of 5 μL of the HIF-1α C35 substrate mix prepared as a 4× concentrate in the dilution buffer containing 120 nM biotin-labeled HIF-1α C35, 132 nM SA-D2, 4 μM 2-oxoglutarate (2-OG) to reach a final reaction volume of 20 μL. […]", "units": {"Selectivity of PHD1 over PHD2": "fold"}, "values": [
      {"compound": "CC(C)(CC(=O)O)NC(=O)c1ncc(-c2cccc(Cl)c2)cc1O", "note": "[compound 1, 3-(5-(3-chlorophenyl)-3-hydroxypicolinamido)-3-methylbutanoic acid]", "Selectivity of PHD1 over PHD2": "~14"},
      {"compound": "C[C@@H](CC(=O)O)NC(=O)c1ncc(-c2cccc(Cl)c2)cc1O", "note": "[compound 2, (S)-3-(5-(3-chlorophenyl)-3-hydroxypicolinamido)butanoic acid]", "Selectivity of PHD1 over PHD2": "~16"},
      {"compound": "C[C@H](CC(=O)O)NC(=O)c1ncc(-c2cccc(Cl)c2)cc1O", "note": "[compound 3, (R)-3-(5-(3-chlorophenyl)-3-hydroxypicolinamido)butanoic acid]", "Selectivity of PHD1 over PHD2": "~17"},
      {"compound": "CC(C)(CNC(=O)c1ncc(-c2cccc(Cl)c2)cc1O)C(=O)O", "note": "[compound 4, 3-(5-(3-chlorophenyl)-3-hydroxypicolinamido)-2,2-dimethylpropanoic acid]", "Selectivity of PHD1 over PHD2": "~1187"},
      {"compound": "O=C(O)CCNC(=O)c1ncc(-c2cccc(Cl)c2)cc1O", "note": "[compound 5, 3-(5-(3-chlorophenyl)-3-hydroxypicolinamido)propanoic acid]", "Selectivity of PHD1 over PHD2": "~12"},
      {"compound": "CC(C)(CNC(=O)c1ncc(-c2cnn(-c3ccccc3)c2)cc1O)C(=O)O", "note": "[compound 6, 3-(3-Hydroxy-5-(1-phenyl-1H-pyrazol-4-yl)picolinamido)-2,2-dimethylpropanoic acid]", "Selectivity of PHD1 over PHD2": "~249"},
      {"compound": "CCCn1cc(-c2cnc(C(=O)NCC(C)(C)C(=O)O)c(O)c2)cn1", "note": "[compound 7, 3-(3-hydroxy-5-(1-propyl-1H-pyrazol-4-yl)picolinamido)-2,2-dimethylpropanoic acid]", "Selectivity of PHD1 over PHD2": "~503"},
      {"compound": "CC(C)(CNC(=O)c1ncc(-c2cccc(Oc3ccccc3)c2)cc1O)C(=O)O", "note": "[compound 8, 3-(3-hydroxy-5-(3-phenoxyphenyl)picolinamido)-2,2-dimethylpropanoic acid]", "Selectivity of PHD1 over PHD2": "~219"},
      {"compound": "CC(C)(CNC(=O)c1ncc(-c2cccc(-c3ccccc3)c2)cc1O)C(=O)O", "note": "[compound 9, 3-(5-([1,1′-biphenyl]-3-yl)-3-hydroxypicolinamido)-2,2-dimethylpropanoic acid]", "Selectivity of PHD1 over PHD2": "~189"},
      {"compound": "CC(C)(CNC(=O)c1ncc(-c2cccc(CN3CCCC3)c2)cc1O)C(=O)O", "note": "[compound 10, 3-(3-hydroxy-5-(3-(pyrrolidin-1-ylmethyl)phenyl)picolinamido)-2,2-dimethylpropanoic acid]", "Selectivity of PHD1 over PHD2": "~95"},
      {"compound": "CC(C)(CNC(=O)c1ncc(-c2cccc(COc3cccc(Cl)c3)c2)cc1O)C(=O)O", "note": "[compound 11, 3-(5-(3-((3-chlorophenoxy)methyl)phenyl)-3-hydroxypicolinamido)-2,2-dimethylpropanoic acid]", "Selectivity of PHD1 over PHD2": "~50"},
      {"compound": "CC(C)(CNC(=O)c1ncc(-c2cccc(OCC3CC3)c2)cc1O)C(=O)O", "note": "[compound 12, 3-(5-(3-(cyclopropylmethoxy)phenyl)-3-hydroxypicolinamido)-2,2-dimethylpropanoic acid]", "Selectivity of PHD1 over PHD2": "~1984"},
      {"compound": "COCCc1ccc(OCc2cccc(-c3cnc(C(=O)NCC(C)(C)C(=O)O)c(O)c3)c2)cc1", "note": "[compound 13, 3-(3-hydroxy-5-(3-((4-(2-methoxyethyl)phenoxy)methyl)phenyl)picolinamido)-2,2-dimethylpropanoic acid]", "Selectivity of PHD1 over PHD2": "~6"},
      {"compound": "Cc1ncc(-c2cnc(C(=O)NCC(C)(C)C(=O)O)c(O)c2)s1", "note": "[compound 14, 3-(3-hydroxy-5-(2-methylthiazol-5-yl)picolinamido)-2,2-dimethylpropanoic acid]", "Selectivity of PHD1 over PHD2": "~15"},
      {"compound": "CC(C)(CNC(=O)c1ncc(-c2cccc(-c3cccnc3)c2)cc1O)C(=O)O", "note": "[compound 15, 3-(3-hydroxy-5-(3-(pyridin-3-yl)phenyl)picolinamido)-2,2-dimethylpropanoic acid]", "Selectivity of PHD1 over PHD2": "~125"},
      {"compound": "CC(C)(CNC(=O)c1ncc(-c2cccc(COc3ccc(OC(F)(F)F)cc3)c2)cc1O)C(=O)O", "note": "[compound 16, 3-(3-hydroxy-5-(3-((4-(trifluoromethoxy)phenoxy)methyl)phenyl)picolinamido)-2,2-dimethylpropanoic acid]", "Selectivity of PHD1 over PHD2": "~53"},
      {"compound": "CC(C)(CNC(=O)c1ncc(-c2ccc3ccccc3c2)cc1O)C(=O)O", "note": "[compound 17, 3-(3-hydroxy-5-(naphthalen-2-yl)picolinamido)-2,2-dimethylpropanoic acid]", "Selectivity of PHD1 over PHD2": "~1031"},
      {"compound": "CC(C)(CNC(=O)c1ncc(-c2cccc(COc3cccc4ccccc34)c2)cc1O)C(=O)O", "note": "[compound 18, 3-(3-hydroxy-5-(3-((naphthalen-1-yloxy)methyl)phenyl)picolinamido)-2,2-dimethylpropanoic acid]", "Selectivity of PHD1 over PHD2": "~885"},
      {"compound": "CC(C)(CNC(=O)c1ncc(-c2cnn(CCN3CCOCC3)c2)cc1O)C(=O)O", "note": "[compound 19, 3-(3-hydroxy-5-(1-(2-morpholinoethyl)-1H-pyrazol-4-yl)picolinamido)-2,2-dimethylpropanoic acid]", "Selectivity of PHD1 over PHD2": "~495"},
      {"compound": "CC(C)(CNC(=O)c1ncc(-c2cccc3ccccc23)cc1O)C(=O)O", "note": "[compound 20, 3-(3-hydroxy-5-(naphthalen-1-yl)picolinamido)-2,2-dimethylpropanoic acid]", "Selectivity of PHD1 over PHD2": "~159"},
      {"compound": "CC(C)(CNC(=O)c1ncc(-c2cccc(O)c2)cc1O)C(=O)O", "note": "[compound 21, 3-(3-hydroxy-5-(3-hydroxyphenyl)picolinamido)-2,2-dimethylpropanoic acid]", "Selectivity of PHD1 over PHD2": "~1494"},
      {"compound": "CC(C)(CNC(=O)c1ncc(-c2cccc(OCc3ccc(Cl)cc3)c2)cc1O)C(=O)O", "note": "[compound 22, 3-(5-(3-((4-chlorobenzyl)oxy)phenyl)-3-hydroxypicolinamido)-2,2-dimethylpropanoic acid]", "Selectivity of PHD1 over PHD2": "~261"},
      {"compound": "CC(C)(CNC(=O)c1ncc(-c2ccc3cc(O)ccc3c2)cc1O)C(=O)O", "note": "[compound 23, 3-(3-hydroxy-5-(6-hydroxynaphthalen-2-yl)picolinamido)-2,2-dimethylpropanoic acid]", "Selectivity of PHD1 over PHD2": "~113"},
      {"compound": "CC(C)(CNC(=O)c1ncc(-c2cccc(Oc3ccc(Cl)cc3)c2)cc1O)C(=O)O", "note": "[compound 24, 3-(5-(3-(4-chlorophenoxy)phenyl)-3-hydroxypicolinamido)-2,2-dimethylpropanoic acid]", "Selectivity of PHD1 over PHD2": "~181"},
      {"compound": "CC(C)(CNC(=O)c1ncc(-c2cccc(Nc3ccc(Cl)cc3)c2)cc1O)C(=O)O", "note": "[compound 25, 3-(5-(3-((4-chlorophenyl)amino)phenyl)-3-hydroxypicolinamido)-2,2-dimethylpropanoic acid]", "Selectivity of PHD1 over PHD2": "~213"},
      {"compound": "CC(C)(CNC(=O)c1ncc(-c2ccc3cc(Oc4ccc(Cl)cc4)ccc3c2)cc1O)C(=O)O", "note": "[compound 26, 3-(5-(6-(4-chlorophenoxy)naphthalen-2-yl)-3-hydroxypicolinamido)-2,2-dimethylpropanoic acid]", "Selectivity of PHD1 over PHD2": "~31"},
      {"compound": "CC(C)(CNC(=O)c1ncc(-c2ccc3cc(OCc4ccc(Cl)cc4)ccc3c2)cc1O)C(=O)O", "note": "[compound 27, 3-(5-(6-((4-chlorobenzyl)oxy)naphthalen-2-yl)-3-hydroxypicolinamido)-2,2-dimethylpropanoic acid]", "Selectivity of PHD1 over PHD2": "~24"}
    ]}
  ]
}
